According to patent US12121614B2, “Delayed release composition for peroral administration” (VICORE PHARMA AB, priority 2020, dated 2024):

Assay: Dissolution studies of C21 sodium salt in buffers of different pH
Assay type: physicochemical
Details: Zwitterion formed at intermediated pHs; conclusion from experiments (A)-(E)
Experimental: 50.7 mg of C21 sodium salt (Ardena, Riga, Latvia) was added to 900 mL of 0.09M carbonate buffer (pH 8.95) at a temperature of 37±3° C. with stirring. […] After 15 minutes of stirring, 2M acetic acid solution was added dropwise to provide a pH of 4.52. Evolution CO2 was noted. […] After additional stirring for a further 1.5 hours, 1M NaOH was added to increase pH to 6.8.
51.2 mg of C21 sodium salt was added to 900 mL of acetate buffer (pH 4.4) at the same temperature with stirring. […] After stirring for 1 hour, 1M NaOH solution was added dropwise to increase the pH to 7.2.
53.2 mg of C21 sodium salt was added to 900 mL 0.1M of HCl buffer (pH 1.0) at the same temperature with stirring. […] After 20 minutes of stirring, 1M NaOH solution was added dropwise to increase the pH to 4.5.
51.0 mg of C21 sodium salt was added to 900 mL of 0.1M citrate buffer (pH 4.42) at the same temperature with stirring. The added compound formed a thin slurry. It seemed that nothing had dissolved.
50.8 mg of C21 sodium salt was added to 900 mL of an acetate buffer (pH 4.49) at the same temperature. […] After stirring for 1 hour, a 1M NaOH solution was added dropwise to increase the pH to 6.8.

CCCCOC(=O)NS(=O)(=O)c1sc(CC(C)C)cc1-c1ccc(Cn2ccnc2)cc1 [C21, N-butyloxycarbonyl-3-(4-imidazol-1-ylmethylphenyl)-5-iso-butylthiophene-2-sulfonamide]
solubility of C21's Zwitterion: insoluble
